Structures can show the parent of a compound that is named as a salt.
Target: T1, SOS1 (Homo sapiens, UniProt Q07889)
T1 sequence (Q07889 1-1333): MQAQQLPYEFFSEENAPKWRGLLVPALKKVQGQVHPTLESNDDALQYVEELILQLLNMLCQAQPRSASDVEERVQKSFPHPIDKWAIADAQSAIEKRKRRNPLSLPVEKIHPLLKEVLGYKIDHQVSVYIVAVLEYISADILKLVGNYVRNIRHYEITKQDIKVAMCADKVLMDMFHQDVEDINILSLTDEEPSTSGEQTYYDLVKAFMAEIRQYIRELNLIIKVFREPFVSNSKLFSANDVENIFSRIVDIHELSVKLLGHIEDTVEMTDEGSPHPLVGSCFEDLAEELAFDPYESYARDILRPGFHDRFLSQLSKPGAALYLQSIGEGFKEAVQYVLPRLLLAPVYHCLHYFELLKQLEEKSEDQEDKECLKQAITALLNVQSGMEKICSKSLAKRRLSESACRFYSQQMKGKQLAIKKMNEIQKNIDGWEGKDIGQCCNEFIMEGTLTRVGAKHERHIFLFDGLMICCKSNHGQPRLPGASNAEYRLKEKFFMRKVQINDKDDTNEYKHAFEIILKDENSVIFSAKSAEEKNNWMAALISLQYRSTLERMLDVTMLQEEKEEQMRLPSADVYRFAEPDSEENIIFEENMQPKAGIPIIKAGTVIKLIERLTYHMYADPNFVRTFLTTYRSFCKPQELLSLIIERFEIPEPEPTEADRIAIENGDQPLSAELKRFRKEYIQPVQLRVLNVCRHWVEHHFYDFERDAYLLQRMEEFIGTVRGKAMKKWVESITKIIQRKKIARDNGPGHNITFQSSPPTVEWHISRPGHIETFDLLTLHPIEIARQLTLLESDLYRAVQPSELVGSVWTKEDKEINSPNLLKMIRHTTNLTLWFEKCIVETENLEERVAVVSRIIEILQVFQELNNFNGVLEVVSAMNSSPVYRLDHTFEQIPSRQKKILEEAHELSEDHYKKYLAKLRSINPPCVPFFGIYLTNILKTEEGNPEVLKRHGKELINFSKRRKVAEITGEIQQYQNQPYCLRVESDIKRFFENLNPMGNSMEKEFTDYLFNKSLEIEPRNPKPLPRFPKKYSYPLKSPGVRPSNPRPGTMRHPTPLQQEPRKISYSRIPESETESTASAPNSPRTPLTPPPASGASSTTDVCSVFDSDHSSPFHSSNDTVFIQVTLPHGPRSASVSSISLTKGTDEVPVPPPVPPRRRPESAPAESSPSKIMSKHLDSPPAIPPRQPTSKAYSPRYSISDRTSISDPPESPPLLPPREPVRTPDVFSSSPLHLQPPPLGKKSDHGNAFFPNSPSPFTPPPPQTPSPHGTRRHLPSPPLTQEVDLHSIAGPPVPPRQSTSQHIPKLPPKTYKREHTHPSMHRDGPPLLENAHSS
Experiment: biochemical

SMILES	IC50
Cc1c([C@@H](C)Nc2nnc(N3CCS(=O)(=O)CC3)c3cc(=O)n(C4CC4)cc23)cccc1C(F)(F)F [Example 59, (R)-6-cyclopropyl-1-(1,1-dioxidothiomorpholino)-4-((1-(2-methyl-3-(trifluoromethyl)phenyl)ethyl)amino)pyr ido[3,4-d]pyridazin-7(6H)-one]	27.4 nM
Cc1c([C@@H](C)Nc2nnc(N3CCSC3)c3cc(=O)n(C4CC4)cc23)cccc1C(F)(F)F [Example 57, (R)-6-cyclopropyl-4-((1-(2-methyl-3-(trifluoromethyl)phenyl)ethyl)amino)-1-(thiazolidin-3-yl)pyrido[3,4-d]pyridazin-7(6H)-one]	25.6 nM
C[C@@H](Nc1nnc(N2CCN3CCCCC3C2)c2cc(=O)n(C3(C)CC3)cc12)c1cccc(C(F)F)c1F (stereo partly drawn) [Example 203, 4-(((R)-1-(3-(difluoromethyl)-2-fluorophenyl)ethyl)amino)-6-(1-methylcyclopropyl)-1-(octahydro-2H-pyrido[1,2-a]pyrazin-2-yl)pyrido[3,4-d]pyridazin-7(6H)-one]	3.8 nM
C[C@@H](Nc1nnc(N2CC3CCC(C2)O3)c2cc(=O)n(C3(C)CC3)cc12)c1cccc(C(F)F)c1F [Example 198, 1-(8-oxa-3-azabicyclo[3.2.1]octan-3-yl)-4-(((R)-1-(3-(difluoromethyl)-2-fluorophenyl)ethyl)amino)-6-(1-methylcyclopropyl) pyrido[3,4-d]pyridazin-7(6H)-one]	13.6 nM
Cc1c(C(F)F)cccc1[C@@H](C)Nc1nnc(N2CCN(C)CC2)c2cc(=O)n(C3(C)CC3)cc12 [Example 213, (R)-4-((1-(3-(difluoromethyl)-2-methylphenyl)ethyl)amino)-6-(1-methylcyclopropyl)-1-(4-methylpiperazin-1-yl)pyrido[3,4-d]pyridazin-7(6H)-one formate]	6.2 nM
C[C@@H](Nc1nnc(N2C3CCC2COC3)c2cc(=O)n(C3(C)CC3)cc12)c1cccc(C(F)F)c1F [Example 202, 1-(3-oxa-8-azabicyclo[3.2.1]octan-8-yl)-4-(((R)-1-(3-(difluoromethyl)-2-fluorophenyl)ethyl)amino)-6-(1-methylcyclopropyl) pyrido[3,4-d]pyridazin-7(6H)-one]	12.4 nM
C[C@@H](Nc1nnc(N2CCC[C@H](CO)C2)c2cc(=O)n(C3(C)CC3)cc12)c1cccc2c1CCC2(F)F [Example 207, 4-(((R)-1-(1,1-difluoro-2,3-dihydro-1H-inden-4-yl)ethyl)amino)-1-((S)-3-(hydroxymethyl)piperidin-1-yl)-6-(1-methylcyclopropyl) pyrido[3,4-d]pyridazin-7(6H)-one]	7.3 nM
Cc1c([C@@H](C)Nc2nnc(N3CCC(F)(F)C3)c3cc(=O)n(C4(C)CC4)cc23)cccc1C(F)(F)F [Example 67, (R)-1-(3,3-difluoropyrrolidin-1-yl)-4-((1-(2-methyl-3-(trifluoromethyl)phenyl)ethyl)amino)-6-(1-methylcyclopropyl) pyrido[3,4-d]pyridazin-7(6H)-one]	29 nM
Cc1c([C@@H](C)Nc2nnc(N3CCN(CC4CC4)CC3)c3cc(=O)n(C4(C)CC4)cc23)cccc1C(F)(F)F [Example 93, (R)-1-(4-(cyclopropylmethyl)piperazin-1-yl)-4-((1-(2-methyl-3-(trifluoromethyl)phenyl)ethyl)amino)-6-(1-methylcyclopropyl) pyrido[3,4-d]pyridazin-7(6H)-one]	5.4 nM
Cc1c(C#N)cccc1[C@@H](C)Nc1nnc(N2CCCC2)c2cc(=O)n(C3(C)CC3)cc12 [Example 45, (R)-2-methyl-3-(1-((6-(1-methylcyclopropyl)-7-oxo-1-(pyrrolidin-1-yl)-6,7-dihydropyrido[3,4-d]pyridazin-4-yl)amino)ethyl)benz onitrile]	6.2 nM
C[C@@H](Nc1nnc(N2CC[C@@H](CO)C2)c2cc(=O)n(C3(C)CC3)cc12)c1cccc(C(F)(F)F)c1 [Example 178, 1-((R)-3-(hydroxymethyl)pyrrolidin-1-yl)-6-(1-methylcyclopropyl)-4-(((R)-1-(3-(trifluoromethyl)phenyl)ethyl)amino)pyr ido[3,4-d]pyridazin-7(6H)-one formate]	6.3 nM

From EP4722213A1, “NITROGEN-CONTAINING FUNCTIONAL GROUP-SUBSTITUTED PYRIDAZINOPYRIDONE DERIVATIVE AND USE THEREOF” (Sichuan Huiyu Pharmaceutical Co., Ltd., priority 2023, dated 2024)
